The source made the active and inactive calls. No cut-off for these calls is given here.
How the values were obtained:
[1] = target: T1, ATP-dependent translocase ABCB1 (Homo sapiens, UniProt P08183); assay: (§1) Inhibition of P-gp-mediated doxorubicin efflux in human Lucena 1 cells assessed as ratio of doxorubicin fluorescence intensity in presence of compound to doxorubicin fluorescence intensity in absence of compound at 25 uM preincubated for 1 hr followed by doxorubicin addition measured after 1 hr by flow cytometry; assay type: cell-based
T1 sequence (P08183 whole entry): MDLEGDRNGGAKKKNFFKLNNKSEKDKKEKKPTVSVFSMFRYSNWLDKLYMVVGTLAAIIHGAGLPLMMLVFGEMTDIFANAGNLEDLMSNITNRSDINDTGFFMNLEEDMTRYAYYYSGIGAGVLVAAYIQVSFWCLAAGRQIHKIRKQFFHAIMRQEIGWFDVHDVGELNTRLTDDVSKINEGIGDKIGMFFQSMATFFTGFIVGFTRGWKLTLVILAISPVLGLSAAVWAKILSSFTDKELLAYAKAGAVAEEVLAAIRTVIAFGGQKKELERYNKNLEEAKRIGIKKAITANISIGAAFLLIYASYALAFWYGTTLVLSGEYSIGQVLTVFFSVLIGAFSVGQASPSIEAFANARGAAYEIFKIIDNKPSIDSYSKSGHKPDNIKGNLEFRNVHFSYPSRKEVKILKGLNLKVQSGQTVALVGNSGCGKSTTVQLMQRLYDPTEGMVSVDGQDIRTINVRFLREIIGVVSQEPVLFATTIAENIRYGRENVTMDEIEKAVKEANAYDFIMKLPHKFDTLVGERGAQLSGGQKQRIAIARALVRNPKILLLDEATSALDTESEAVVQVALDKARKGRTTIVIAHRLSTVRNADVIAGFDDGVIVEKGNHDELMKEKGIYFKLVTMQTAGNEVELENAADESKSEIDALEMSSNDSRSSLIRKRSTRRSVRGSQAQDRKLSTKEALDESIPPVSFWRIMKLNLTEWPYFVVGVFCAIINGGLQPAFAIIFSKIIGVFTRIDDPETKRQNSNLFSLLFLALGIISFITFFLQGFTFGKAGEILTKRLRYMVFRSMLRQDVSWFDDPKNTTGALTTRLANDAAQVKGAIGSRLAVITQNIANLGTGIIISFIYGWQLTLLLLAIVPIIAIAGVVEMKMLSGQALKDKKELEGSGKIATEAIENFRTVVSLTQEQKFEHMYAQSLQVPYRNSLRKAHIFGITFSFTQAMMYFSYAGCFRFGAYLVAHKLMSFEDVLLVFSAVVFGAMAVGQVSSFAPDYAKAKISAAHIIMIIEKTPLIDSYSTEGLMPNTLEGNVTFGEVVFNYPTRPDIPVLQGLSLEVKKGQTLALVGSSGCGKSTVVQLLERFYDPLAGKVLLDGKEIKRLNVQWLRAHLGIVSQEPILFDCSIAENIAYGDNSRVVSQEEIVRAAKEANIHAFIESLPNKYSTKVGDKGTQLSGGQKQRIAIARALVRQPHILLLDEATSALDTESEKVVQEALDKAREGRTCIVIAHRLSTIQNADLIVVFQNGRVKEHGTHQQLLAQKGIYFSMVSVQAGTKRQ

[2] = target: T1, ATP-dependent translocase ABCB1; assay: as §1, with “6.25” for “25”; assay type: cell-based
K562 [3] = assay: Inhibition of doxorubicin efflux in human K562 cells at 25 uM preincubated for 1 hr followed by doxorubicin addition measured after 1 hr by flow cytometry; assay type: functional, cell-based
[4] = target: T1, ATP-dependent translocase ABCB1; assay: as §1, with “1.56” for “25”; assay type: cell-based
[5] = target: T1, ATP-dependent translocase ABCB1; assay: Inhibition of P-gp-mediated doxorubicin efflux in human Lucena 1 cells preincubated for 1 hr followed by doxorubicin addition measured after 1 hr by flow cytometry; assay type: cell-based
[6] = target: T1, ATP-dependent translocase ABCB1; assay: Inhibition of P-gp-mediated Rho-123 efflux in human Lucena 1 cells at […] preincubated for 1 hr followed by Rho-123 addition measured after 1 hr by flow cytometry; assay type: cell-based
[7] = target: T1, ATP-dependent translocase ABCB1; assay: as §1, with “0.78” for “25”; assay type: cell-based
PBMC [8] = assay: Cytotoxicity against human PBMC at 6.25 uM after 48 hrs by MTT assay; assay type: cell-based
[9] = target: T1, ATP-dependent translocase ABCB1; assay: as §1, with “0.39” for “25”; assay type: cell-based
K562 [10] = assay: Potentiation of doxorubicin-induced cytotoxicity in human K562 cells assessed as decrease in doxorubicin IC50 at 1.56 uM after 48 hrs by MTT assay; assay type: functional, cell-based
PBMC [11] = assay: Cytotoxicity against human PBMC at 25 uM after 48 hrs by MTT assay relative to control; assay type: cell-based
P-gp (ABCB1) = P-gp (ABCB1) (Homo sapiens, UniProt P08183); assay: Stimulation of P-gp (unknown origin) ATPase activity at 10 uM relative to control; conditions: read-out: Activity
Chain of P-gp (ABCB1) (P08183 whole entry): as above

K562 [12] = assay type: functional, cell-based; conditions: Homo sapiens, 3.12 uM
[13] = target: T1, ATP-dependent translocase ABCB1; assay: Inhibition of P-gp-mediated Rho-123 efflux in human Lucena 1 cells at 50 uM preincubated for 1 hr followed by Rho-123 addition measured after 1 hr by flow cytometry; assay type: cell-based

| Structure (SMILES) | Ratio [1] | Ratio [2] | inhibition (K562 [3]) | inhibition (INH) [5] | further results |
| --- | --- | --- | --- | --- | --- |
| COc1ccc2[nH]c(-c3ccc(OC)c(OC)c3)c(C)c2c1 | 0.9 |  |  |  |  |
| CC/C(=C(/CC)c1ccc(OCCCCOC(C)=O)cc1)c1ccc(OCCCCOC(C)=O)cc1 | 1.18 | 1.09 | inactive | Dose-dependent effect | Ratio [4]: 1.01 |
| CC/C(=C(/CC)c1ccc(OCCCCS(=O)(=O)[O-])cc1)c1ccc(OCCCCS(=O)(=O)[O-])cc1.[Na+].[Na+] | 0.95 |  |  |  |  |
| CC/C(=C(\c1ccccc1)c1ccc(OCCN(C)C)cc1)c1ccccc1 [TAMOXIFEN] | 1.13 |  |  |  | INH [6]: Active |
| CC/C(=C(/CC)c1ccc(OCCCCO)cc1)c1ccc(OCCCCO)cc1 | 1.32 | 1.08 | inactive | Dose-dependent effect | Ratio [7]: 0.99; Activity (PBMC [8]): Non-Toxic; Ratio [9]: 1; INH [6]: Active; Activity (K562 [10]): inactive; Ratio [4]: 1.1; Activity (PBMC [11]): 41% |
| CC/C(=C(/CC)c1ccc(S(=O)(=O)[O-])cc1)c1ccc(S(=O)(=O)[O-])cc1.[Na+].[Na+] | 0.99 |  |  |  |  |
| Cc1c(-c2ccc(O)c(O)c2)[nH]c2ccc(OCCO)cc12 | 1.01 |  |  |  |  |
| CC/C(=C(/CC)c1ccc(OCCCS(=O)(=O)[O-])cc1)c1ccc(OCCCS(=O)(=O)[O-])cc1.[Na+].[Na+] | 1.03 |  |  |  |  |
| CC/C(=C(/CC)c1ccc(OCCO)cc1)c1ccc(OCCO)cc1 | 1.16 | 1.08 | inactive | Dose-dependent effect |  |
| Cc1c(-c2ccc(O)cc2)[nH]c2ccc(O)cc12 | 0.8 |  |  |  |  |
| CC/C(=C(/CC)c1ccc(OCCCOC(C)=O)cc1)c1ccc(OCCCOC(C)=O)cc1 | 1.21 | 1.06 | inactive | Dose-dependent effect | Ratio [4]: 1.02 |
| CC/C(=C(/CC)c1ccc(OCCOS(=O)(=O)[O-])cc1)c1ccc(OCCOS(=O)(=O)[O-])cc1.[Na+].[Na+] | 1.04 |  |  |  |  |
| Cc1c(-c2ccc(O)c(O)c2)[nH]c2ccc(O)cc12 | 0.72 |  |  |  |  |
| CC/C(=C(/CC)c1ccc(O)cc1)c1ccc(O)cc1 [DIETHYLSTILBESTROL] | 1.06 | 1.04 | inactive |  | activity at 10 µM (P-gp (ABCB1)): 45% |
| CC/C(=C(/CC)c1ccc(OCCOC(C)=O)cc1)c1ccc(OCCOC(C)=O)cc1 | 1.21 | 1.12 | inactive | Dose-dependent effect | Ratio [4]: 1.03 |
| COc1cc([C@@H]2CC(O)=Nc3c2cnn3Cc2cccs2)ccc1O | 0.96 |  |  |  |  |
| CC/C(=C(/CC)c1ccc(OCCCO)cc1)c1ccc(OCCCO)cc1 | 1.23 | 1.09 | inactive | Dose-dependent effect | Activity (K562 [12]): inactive; inhibition (INH) [13]: Active; Ratio [7]: 0.98; Activity (PBMC [8]): Non-Toxic; Ratio [4]: 1.05; Activity (PBMC [11]): 34.67% |
| Cc1c(-c2ccc(O)c(O)c2)n(C)c2ccc(O)cc12 | 0.75 |  |  |  |  |
| CC/C(=C(/CC)c1ccc(OC)cc1)c1ccc(OC)cc1 | 1.19 | 1.09 | inactive | Dose-dependent effect |  |
| COc1ccc(-n2nc(C)c3c2NC(=O)C[C@@H]3c2ccc(O)c(OC)c2)cc1 | 1.11 |  |  |  |  |

Reference: ChEMBL document CHEMBL4325923, “Analogues of the Lignan Pinoresinol as Novel Lead Compounds for P-glycoprotein (P-gp) Inhibitors” (ACS Med Chem Lett, 2018)
